Measurements reported in PubChem BioAssay (NCI).
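Five concentrations, 48 hours, 96-well plates. Here, GI50 denotes the concentration required for 50% inhibition of growth. TGI denotes the concentration required for complete inhibition of growth.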

Key:
Experiment in all cases: inhibition of tumour cell growth, NCI panel, 48 h
OVCAR-5 ovarian = tested on: OVCAR-5 ovarian
DU-145 prostate = tested on: DU-145 prostate
TK-10 renal = tested on: TK-10 renal
UO-31 renal = tested on: UO-31 renal
HOP-62 NSCLC = tested on: HOP-62 NSCLC
SK-MEL-28 melanoma = tested on: SK-MEL-28 melanoma
LOX IMVI melanoma = tested on: LOX IMVI melanoma
SNB-19 CNS = tested on: SNB-19 CNS
NCI-H226 lung = tested on: NCI-H226 lung
OVCAR-8 ovarian = tested on: OVCAR-8 ovarian
A549 NSCLC = tested on: A549 NSCLC
HOP-92 NSCLC = tested on: HOP-92 NSCLC
CAKI-1 renal = tested on: CAKI-1 renal
SF-295 CNS = tested on: SF-295 CNS
HCT-15 colon = tested on: HCT-15 colon
OVCAR-4 ovarian = tested on: OVCAR-4 ovarian
HS 578T breast = tested on: HS 578T breast
BT-549 breast = tested on: BT-549 breast
MDA-MB-468 breast = tested on: MDA-MB-468 breast
SF-539 CNS = tested on: SF-539 CNS
786-0 renal = tested on: 786-0 renal
T-47D breast = tested on: T-47D breast
HT29 colon = tested on: HT29 colon
NCI-H460 lung = tested on: NCI-H460 lung
CCRF-CEM leukemia = tested on: CCRF-CEM leukemia
COLO 205 colon = tested on: COLO 205 colon
HL-60(TB) leukemia = tested on: HL-60(TB) leukemia
OVCAR-3 ovarian = tested on: OVCAR-3 ovarian
U251 CNS = tested on: U251 CNS
MDA-MB-435 = tested on: MDA-MB-435
K-562 leukemia = tested on: K-562 leukemia
EKVX NSCLC = tested on: EKVX NSCLC
SK-OV-3 ovarian = tested on: SK-OV-3 ovarian
IGROV1 ovarian = tested on: IGROV1 ovarian
MDA-MB-231 breast = tested on: MDA-MB-231 breast
SW-620 colon = tested on: SW-620 colon
SK-MEL-5 melanoma = tested on: SK-MEL-5 melanoma
SR leukemia = tested on: SR leukemia
MALME-3M melanoma = tested on: MALME-3M melanoma
MCF7 breast = tested on: MCF7 breast
RXF 393 renal = tested on: RXF 393 renal
HCT-116 colon = tested on: HCT-116 colon
SN12C renal = tested on: SN12C renal
PC-3 prostate = tested on: PC-3 prostate
SF-268 CNS = tested on: SF-268 CNS
MOLT-4 leukemia = tested on: MOLT-4 leukemia
UACC-62 melanoma = tested on: UACC-62 melanoma
NCI-H522 lung = tested on: NCI-H522 lung
SK-MEL-2 melanoma = tested on: SK-MEL-2 melanoma
A498 renal = tested on: A498 renal
NCI-H23 lung = tested on: NCI-H23 lung
M14 melanoma = tested on: M14 melanoma
HCC-2998 colon = tested on: HCC-2998 colon
RPMI-8226 leukemia = tested on: RPMI-8226 leukemia
ACHN renal = tested on: ACHN renal
KM12 colon = tested on: KM12 colon
UACC-257 melanoma = tested on: UACC-257 melanoma

`COc1ccc2[nH]c(=O)cc(-n3ncc(C(=O)/C=C/c4cc(OC)c(OC)c(OC)c4)c3C)c2c1` showed a GI50 (OVCAR-5 ovarian) of 3.99 µM, a TGI (OVCAR-5 ovarian) of 15.1 µM and a GI50 (DU-145 prostate) of 3.29 µM. It also gave a TGI (DU-145 prostate) of 10.8 µM, a GI50 (TK-10 renal) of 8.02 µM and a TGI (TK-10 renal) of 20.9 µM. It also gave a GI50 (UO-31 renal) of 5.62 µM, a TGI (UO-31 renal) of 18.9 µM and a GI50 (HOP-62 NSCLC) of 11.2 µM. The TGI (HOP-62 NSCLC) was 26.4 µM, the GI50 (SK-MEL-28 melanoma) was 5.26 µM and the TGI (SK-MEL-28 melanoma) was 17.4 µM. It also gave a GI50 (LOX IMVI melanoma) of 2.75 µM, a TGI (LOX IMVI melanoma) of 9.83 µM and a GI50 (SNB-19 CNS) of 11.2 µM. For the same compound, the TGI (SNB-19 CNS) was 23.4 µM, the GI50 (NCI-H226 lung) was 11.1 µM and the TGI (NCI-H226 lung) was 25.4 µM. For the same compound, the GI50 (OVCAR-8 ovarian) was 3.46 µM, the TGI (OVCAR-8 ovarian) was 12.3 µM and the GI50 (A549 NSCLC) was 11.5 µM. The TGI (A549 NSCLC) was 52.2 µM, the GI50 (HOP-92 NSCLC) was 11.4 µM and the TGI (HOP-92 NSCLC) was 34.9 µM. The GI50 (CAKI-1 renal) was 5.23 µM, the TGI (CAKI-1 renal) was 20 µM and the GI50 (SF-295 CNS) was 4.64 µM. The TGI (SF-295 CNS) was 16.6 µM, the GI50 (HCT-15 colon) was 3.57 µM and the TGI (HCT-15 colon) was 15.7 µM. For the same compound, the GI50 (OVCAR-4 ovarian) was 12.4 µM, the TGI (OVCAR-4 ovarian) was 42.9 µM and the GI50 (HS 578T breast) was 8.96 µM. It also gave a TGI (HS 578T breast) of 95.2 µM, a GI50 (BT-549 breast) of 3.47 µM and a TGI (BT-549 breast) of 13.8 µM. It also gave a GI50 (MDA-MB-468 breast) of 2.5 µM, a TGI (MDA-MB-468 breast) of 7.3 µM and a GI50 (SF-539 CNS) of 2.68 µM. It also gave a TGI (SF-539 CNS) of 9.09 µM, a GI50 (786-0 renal) of 11 µM and a TGI (786-0 renal) of 25.3 µM. It also gave a GI50 (T-47D breast) of 6.59 µM, a TGI (T-47D breast) of 43.6 µM and a GI50 (HT29 colon) of 3.15 µM. For the same compound, the TGI (HT29 colon) was 11 µM, the GI50 (NCI-H460 lung) was 3.28 µM and the TGI (NCI-H460 lung) was 13.6 µM. It also gave a GI50 (CCRF-CEM leukemia) of 2.76 µM, a TGI (CCRF-CEM leukemia) of 16.8 µM and a GI50 (COLO 205 colon) of 4.94 µM. It also gave a TGI (COLO 205 colon) of 17.2 µM, a GI50 (HL-60(TB) leukemia) of 3.88 µM and a TGI (HL-60(TB) leukemia) of 29 µM. For the same compound, the GI50 (OVCAR-3 ovarian) was 4.04 µM, the TGI (OVCAR-3 ovarian) was 13.9 µM and the GI50 (U251 CNS) was 3.91 µM. For the same compound, the TGI (U251 CNS) was 18.5 µM, the GI50 (MDA-MB-435) was 3.81 µM and the TGI (MDA-MB-435) was 14.1 µM. The GI50 (K-562 leukemia) was 3.24 µM, the TGI (K-562 leukemia) was greater than 100 µM and the GI50 (EKVX NSCLC) was 5.16 µM. It also gave a TGI (EKVX NSCLC) of 20.1 µM, a GI50 (SK-OV-3 ovarian) of 12 µM and a TGI (SK-OV-3 ovarian) of 36.5 µM. It also gave a GI50 (IGROV1 ovarian) of 3.46 µM, a TGI (IGROV1 ovarian) of 13.5 µM and a GI50 (MDA-MB-231 breast) of 5.4 µM. For the same compound, the TGI (MDA-MB-231 breast) was 18.6 µM, the GI50 (SW-620 colon) was 3.54 µM and the TGI (SW-620 colon) was 13.5 µM. It also gave a GI50 (SK-MEL-5 melanoma) of 10.3 µM, a TGI (SK-MEL-5 melanoma) of 22 µM and a GI50 (SR leukemia) of 4.2 µM. For the same compound, the TGI (SR leukemia) was greater than 100 µM, the GI50 (MALME-3M melanoma) was 6.82 µM and the TGI (MALME-3M melanoma) was 19.9 µM. For the same compound, the GI50 (MCF7 breast) was 3.19 µM, the TGI (MCF7 breast) was 11.9 µM and the GI50 (RXF 393 renal) was 2.79 µM. The TGI (RXF 393 renal) was 9.94 µM, the GI50 (HCT-116 colon) was 7.41 µM and the TGI (HCT-116 colon) was 21.7 µM. The GI50 (SN12C renal) was 3.59 µM, the TGI (SN12C renal) was 15.6 µM and the GI50 (PC-3 prostate) was 10 µM. The TGI (PC-3 prostate) was 38 µM, the GI50 (SF-268 CNS) was 10.4 µM and the TGI (SF-268 CNS) was 34.8 µM. For the same compound, the GI50 (MOLT-4 leukemia) was 3.81 µM, the TGI (MOLT-4 leukemia) was 64.9 µM and the GI50 (UACC-62 melanoma) was 7.17 µM. For the same compound, the TGI (UACC-62 melanoma) was 20.2 µM, the GI50 (NCI-H522 lung) was 3.6 µM and the TGI (NCI-H522 lung) was 13.3 µM. It also gave a GI50 (SK-MEL-2 melanoma) of 6.06 µM, a TGI (SK-MEL-2 melanoma) of 18.7 µM and a GI50 (A498 renal) of 19.1 µM. It also gave a TGI (A498 renal) of 36.3 µM, a GI50 (NCI-H23 lung) of 3.5 µM and a TGI (NCI-H23 lung) of 13 µM. The GI50 (M14 melanoma) was 8.64 µM, the TGI (M14 melanoma) was 29.9 µM and the GI50 (HCC-2998 colon) was 11.5 µM. The TGI (HCC-2998 colon) was 24 µM, the GI50 (RPMI-8226 leukemia) was 2.91 µM and the TGI (RPMI-8226 leukemia) was 15 µM. For the same compound, the GI50 (ACHN renal) was 4.33 µM, the TGI (ACHN renal) was 16.6 µM and the GI50 (KM12 colon) was 13.2 µM. It also gave a TGI (KM12 colon) of 30.1 µM, a GI50 (UACC-257 melanoma) of 12.5 µM and a TGI (UACC-257 melanoma) of 26.6 µM.
